Source: patent US10865203B2, “Ligands selective to alpha 6 subunit-containing GABAA receptors and their methods of use” (UWM Research Foundation, Inc., priority 2015, dated 2020)
Entries after “also recorded” stand apart in the source; their conditions may differ.

How the values were obtained:
α6β3γ2 receptor = molecular target: T1, α6β3γ2 receptor (Rattus norvegicus, UniProt P30191+P63079); test: Electrophysiology in Xenopus oocytes, modulation of GABA currents; assay type: cell-based; conditions: modulation of GABA EC3 currents
T1 construct: expressed in transfected cells; host or cells: Xenopus laevis oocytes injected with subunit mRNA (3:1:5)
T1 sequence (P30191 20-453): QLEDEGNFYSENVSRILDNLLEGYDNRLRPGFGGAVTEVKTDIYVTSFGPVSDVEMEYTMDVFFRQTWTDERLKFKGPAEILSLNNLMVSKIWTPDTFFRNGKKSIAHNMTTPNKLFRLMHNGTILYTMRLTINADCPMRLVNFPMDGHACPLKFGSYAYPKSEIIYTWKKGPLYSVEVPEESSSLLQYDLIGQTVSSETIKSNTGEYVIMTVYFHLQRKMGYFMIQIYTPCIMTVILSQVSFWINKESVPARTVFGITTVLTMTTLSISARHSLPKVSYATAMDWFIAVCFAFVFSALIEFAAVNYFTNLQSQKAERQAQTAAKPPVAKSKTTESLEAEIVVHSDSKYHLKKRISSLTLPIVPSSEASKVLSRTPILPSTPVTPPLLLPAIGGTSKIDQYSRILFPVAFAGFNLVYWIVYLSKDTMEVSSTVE
T1 sequence (P63079 26-473): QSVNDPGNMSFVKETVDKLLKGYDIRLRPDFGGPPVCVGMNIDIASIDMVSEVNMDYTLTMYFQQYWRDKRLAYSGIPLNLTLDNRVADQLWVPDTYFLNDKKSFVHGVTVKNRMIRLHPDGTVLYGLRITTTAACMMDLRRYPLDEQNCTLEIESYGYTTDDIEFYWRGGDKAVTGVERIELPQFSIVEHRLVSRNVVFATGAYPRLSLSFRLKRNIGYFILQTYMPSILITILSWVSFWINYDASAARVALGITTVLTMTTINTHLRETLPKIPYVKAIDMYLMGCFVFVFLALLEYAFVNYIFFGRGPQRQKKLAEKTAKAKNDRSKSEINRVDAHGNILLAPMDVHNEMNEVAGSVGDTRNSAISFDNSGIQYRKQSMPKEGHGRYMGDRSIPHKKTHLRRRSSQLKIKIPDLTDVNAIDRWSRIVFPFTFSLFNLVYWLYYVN
T1 sequence (P18508 39-466 partner): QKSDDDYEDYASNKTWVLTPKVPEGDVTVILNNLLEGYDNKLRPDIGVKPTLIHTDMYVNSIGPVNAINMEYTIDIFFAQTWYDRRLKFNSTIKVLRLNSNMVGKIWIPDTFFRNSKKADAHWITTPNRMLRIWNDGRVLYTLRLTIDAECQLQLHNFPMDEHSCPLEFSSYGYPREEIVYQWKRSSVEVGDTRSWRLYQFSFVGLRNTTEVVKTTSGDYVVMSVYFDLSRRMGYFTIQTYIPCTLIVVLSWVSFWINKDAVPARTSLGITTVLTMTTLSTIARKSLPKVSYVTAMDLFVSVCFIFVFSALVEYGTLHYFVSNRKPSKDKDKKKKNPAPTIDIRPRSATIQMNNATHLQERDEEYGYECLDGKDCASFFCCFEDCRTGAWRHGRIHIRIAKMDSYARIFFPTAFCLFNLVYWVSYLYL
Procedure: Mature female Xenopus laevis (Nasco, Fort Atkinson, Wis., USA) were anaesthetized in a bath of ice-cold 0.17% Tricain (Ethyl-m-aminobenzoat, Sigma-Aldrich, St. Louis, Mo., USA) before decapitation and transfer of the frog's ovary to ND96 medium (96 mM NaCl, 2 mM KCl, 1 mM MgCl2, 5 mM HEPES; pH 7.5). Following incubation in 1 mg/mL collagenase (Sigma-Aldrich, St. Louis, Mo., USA) for 30 min, stage 5 to 6 oocytes were singled out of the ovary and defolliculated using a platinum wire loop. Oocytes were stored and incubated at 18° C. in NDE medium (96 mM NaCl, 2 mM KCl, 1 mM MgCl2, 5 mM HEPES, 1.8 mM CaCl2; pH 7.5) that was supplemented with 100 U per mL-1 penicillin, 100 μg per mL-1 streptomycin and 2.5 mM pyruvate. Oocytes were injected with an aqueous solution of mRNA. A total of 2.5 ng of mRNA per oocyte was injected. Subunit ratio was 1:1:5 for αxβγ2 (x=1, 2, 3, 5) and 3:1:5 for α4/6β3γ2 and αβδ receptors. Injected oocytes were incubated for at least 36 h before electrophysiological recordings. Oocytes were placed on a nylon-grid in a bath of NDE medium. For current measurements, the oocytes were impaled with two microelectrodes (2-3MΩ), which were filled with 2 M KCl. The oocytes were constantly washed by a flow of 6 mL per min-1 NDE that could be switched to NDE containing GABA and/or drugs. Drugs were diluted into NDE from DMSO solutions resulting in a final concentration of 0.1% DMSO. […] To test for modulation of GABA induced currents by compounds, a GABA concentration that was titrated to trigger 3-5% of the respective maximum GABA-elicited current of the individual oocyte (EC3-5) was applied to the cell together with various concentrations of tested compounds. All recordings were performed at room temperature at a holding potential of −60 mV using a Warner OC-725C TEV (Warner Instrument, Hamden, Conn., USA) or a Dagan CA-1B Oocyte Clamp or a Dagan TEV-200A TEV (Dagan Corporation, Mineapolis, Minn., USA). Data were digitized using a Digidata 1322A or 1550 data acquisition system (Axon Instruments, Union City, Calif., USA), recorded using Clampex 10.5 software (Molecular Devices, Sunnyvale, Calif., USA), and analyzed using Clampfit 10.5 and GraphPad Prism 6.0 (La Jolla, Calif., USA) software. Concentration-response data were fitted using the Hill equation. Data are given as mean±SEM from at least three oocytes of two batches.
For selected test compounds full dose response curves were recorded in α1-6β3γ2 receptors. For selected compounds, dose response curves in additional receptor subtypes (α1, 4, 6β3δ, α6β1, 2γ2, α1-6β3) were also obtained. For a wider panel of compounds, a two point screening pharmacology was obtained at 1 and 10 μM compound concentrations.

[1] = Microsomal stability assay, mouse liver microsomes; assay type: in vitro ADME; conditions: 10 μM test compound, 0.5 mg/mL protein, 37° C.
Procedure: (§1) 4 μL of 1 mM test compound at a final concentration of 10 μM dissolved in DMSO/ACN/Methanol/Ethanol was preincubated at 37° C. for 5 minutes on a digital heating shaking dry bath (Fischer scientific, Pittsburgh, Pa.) in a mixture containing 282 μL of water, 80 μL of phosphate buffer (0.5 M, pH 7.4), 20 μL of NADPH Regenerating System Solution A (BD Bioscience, San Jose, Calif.) and 4 μL of NADPH Regenerating System Solution B (BD Bioscience, San Jose, Calif.) in a total volume of 391.2 μL. Following preincubation, the reaction was initiated by addition of 8.8 μL of either human liver microsomes (BD Gentest, San Jose, Calif.), mouse liver microsomes (Life technologies, Rockford, Ill.), at a protein concentration of 0.5 mg/mL. Aliquots of 50 μL were taken at time intervals of 0 (without microsomes), 10, 20, 30, 40, 50 and 60 minutes. Each aliquot was added to 100 μL of cold acetonitrile solution containing 1 μM/2 μM internal standard. This was followed by sonication for 10 seconds and centrifugation at 10,000 rpm for 5 minutes. 100 μL of the supernatant was transferred into Spin-X HPLC filter tubes (Corning Incorporated, NY) and centrifuged at 13,000 rpm for 5 minutes. […] The ratio of the peak areas of the internal standard and test compound was calculated for every time point and the natural log of the ratio were plotted against time to determine the linear slope (k). […] All experiments were repeated three times in duplicates.

[2] = Microsomal stability assay, human liver microsomes; assay type: in vitro ADME; conditions: 10 μM test compound, 0.5 mg/mL protein, 37° C.
Procedure: as §1

[3] = system: METH-impaired PPI in C57/B6 mice; test: PPI test, methamphetamine-impaired prepulse inhibition; assay type: in vivo, mouse; conditions: for rescue of METH-impaired PPI: mice, compound 10 mg/kg i.p. 15 min before METH 2 mg/kg i.p.
Procedure: All animal experiments conducted at NTU were approved by the Institutional Animal Care and Use Committee of College of Medicine, National Taiwan University. C57/B6 (8-10 weeks) mice were used for the PPI test and Wistar rats (8-9 weeks) were used in the migraine model. Animals were housed in an animal room with a 12-h light/12-h dark cycle and free access to food and water.
The PPI test was conducted with a PPI apparatus (SR-LAB, San Diego Instruments, San Diego, Calif.) consisting of a startle chamber equipped with various programming acoustic stimulations. After acclimation, the mouse was gently placed in the startle chamber for a 4 min acclimation period with a background noise of 65 dB, which continued throughout the whole PPI test session. One PPI test session consisted of 4 types of startle trials, including the trial with the startle pulse (115 dB) alone (PULSEALONE; 115 dB, 20 ms), two trials with the startle pulse paired with 71 and 77 dB prepulses, respectively (PREPULSE+PULSE; 71 dB+115 dB and 77 dB+115 dB), and the trial without stimulus (NOSTIM; background 65 dB only). A test session started and ended, respectively, with four NOSTIM trials and four PULSEALONE trials. In between, each of the four types of trials was presented 14 times randomly, that is, 56 trials were given in a test session. The intertrial interval was given randomly from 5 to 20 s. In the PREPULSE+PULSE trial, a 71 or 77 dB prepulse was given 120 ms before the 115 dBpulse. The magnitude of PPI (PPI %) was determined, after summarizing the startle responses in PULSEALONE and PREPULSE+PULSE trials, according to the equation (PULSEALON−PREPULSE+PULSE)/PULSEALONE×100%. The tested compound or vehicle was given to the animal for 15 min, followed by methamphetamine (2 mg/kg). The PPI test was conducted 10 min after injection of methamphetamine. Data were expressed as the mean±S.E.M. Statistical comparisons among groups were analyzed by ANOVA with Tukey post hoc test, and differences between groups were analyzed by Student's t-test. Two-way ANOVA with Bonferroni's post hoc test was used to analyze differences in the time courses of locomotor activity among groups. Differences were considered significant if P<0.05.
Methamphetamine and apomorphine were dissolved in normal saline for i.p. And s.c. Injections, respectively. Tested compounds and haloperidol, when given by i.p. Injection, were dissolved in a vehicle containing 20% dmso, 20% Cremophor® el (polyoxyethylene castor, sigma-aldrich) and 60% normal saline. Furosemide was dissolved (20 nmole/μL) in dimethylsulfoxide for intra-cerebellar microinjection the i.p. or s.c. Injection volume was 10 mL/kg.

SMILES | selectivity for α6β3γ2 over other αxβ3γ2 receptors (α6β3γ2 receptor) | % left after 1 hr. (MLM) [1] [%] | half-life at 10 μM ([1]; mouse, liver microsomes, pH 7.4, read-out: Half-life (min) (MLM)) | % left after 1 hr. (HLM) [2] [%] | half-life at 10 μM ([2]; human, liver microsomes, pH 7.4, read-out: Half-life (min) (HLM)) | effect of intra-cerebellar furosemide on the rescue of PPI ([3]; furosemide 10 nmol intra-cerebellar microinjection) | rescue of METH-impaired PPI [3] | rescue of METH-impaired PPI ([3]; listed as C11) | Half-life (min) (MLM) [1] | Half-life (min) (HLM) [2]
COc1ccc(-n2nc3c4cc(Cl)ccc4[nH]cc-3c2=O)cc1 [Compound 11, 8-Chloro-2-(4-methoxyphenyl)-2,5-dihydro-3H-pyrazolo[4,3-c]quinolin-3-one] | strongly modulates other GABAA receptor subtypes | 69.2 ± 0.15 | 116 ± 5.2 | 72.5 ± 0.11 | 135 ± 5 | prevented | effective; also recorded: significantly rescued | significantly rescued |  | 
[2H]C([2H])([2H])Oc1ccc(-n2nc3c4cc(Cl)ccc4[nH]cc-3c2=O)cc1 [DK-I-93-1, 8-Chloro-2-(4-methoxy-d3-phenyl)-2,5-dihydro-3H-pyrazolo[4,3-c]quinolin-3-one] |  | 85.53 ± 0.07 |  | 92.2 ± 0.15 |  |  |  |  | 263 ± 5.96 | 640 ± 126
COc1ccc2c3nn(-c4ccc(OC)nc4)c(=O)c-3c[nH]c2c1 [DK-II-13-1, 7-Methoxy-2-(6-methoxypyridin-3-yl)-2,5-dihydro-3H-pyrazolo[4,3-c]quinolin-3-one] |  | 74.77 ± 0.12 |  | 93 ± 0.14 |  |  |  |  | 139.2 ± 5.8 | 794 ± 182
COc1ccc(-n2nc3c4cc(Cl)ccc4[nH]cc-3c2=O)cn1 [DK-II-18-1, 8-Chloro-2-(6-methoxypyridin-3-yl)-2,5-dihydro-3H-pyrazolo[4,3-c]quinolin-3-one] |  | 85.6 ± 0.12 |  | 91.6 ± 0.10 |  |  |  |  | 265 ± 17 | 511 ± 44
[2H]C([2H])([2H])Oc1ccc(-n2nc3c4ccc(Br)cc4[nH]cc-3c2=O)cn1 [DK-II-58-1, 7-Bromo-2-(6-methoxy-d3-pyridin-3-yl)-2,5-dihydro-3H-pyrazolo[4,3-c]quinolin-3-one] |  | 98.39 ± 0.06 |  | 97.8 ± 0.06 |  |  |  |  | 4250 ± 0.001 | 2341 ± 0.001
[2H]C([2H])([2H])Oc1ccc(-n2nc3c4cc(Cl)ccc4[nH]cc-3c2=O)cn1 [DK-II-59-1, 8-Chloro-2-(6-methoxy-d3-pyridin-3-yl)-2,5-dihydro-3H-pyrazolo[4,3-c]quinolin-3-one] |  | 85.1 ± 0.10 |  | 93 ± 0.12 |  |  |  |  | 250.62 ± 13 | 725.8 ± 146
[2H]C([2H])([2H])Oc1ccc(-n2nc3c4ccc(OC)cc4[nH]cc-3c2=O)cn1 [DK-II-60-1, 7-Methoxy-2-(6-methoxy-d3-pyridin-3-yl)-2,5-dihydro-3H-pyrazolo[4,3-c]quinolin-3-one] |  | 92.4 ± 0.12 |  | 92.5 ± 0.12 |  |  |  |  | 640 ± 102 | 592.5 ± 96
